Test results as given in patent US20100168067A1, “BIOMARKERS FOR BISPHOSPHONATE-RESPONSIVE BONE DISORDERS” (UCL BUSINESS PLC, priority 2006, published 2010).

Test system: total hip mineralisation in subjects treated for OP
[1] = response by genotype TT vs TG/GG at rs2297480, annualised change in total hip densitometry, 95% CI in brackets

Method: Genetic samples were obtained from subjects enrolled in an ongoing clinical programme for treatment of OP through the use of regular intravenous Pamidronate (30 mg three monthly).
By such methodology, 53 subjects (each with two densitometric estimates taken in the first 24 month of Pamidronate therapy) were respectively assigned drug response phenotypes according to their display of ongoing demineralisation (‘response failure’) or stable or improving mineralising (‘response success’). This was achieved by comparison of derived annualised rates of change in projected densitometric estimates of total hip mineralisation.
DNA was extracted from blood samples using standard organic phase methods and PCR amplification and DNA sequencing was carried out using standard protocols (dye-terminator sequencing using an ABI3100 automated DNA sequencer).

**Q.** How did the “number of subjects with 'response failure' (ongoing demineralisation)” value (TT genotype at rs2297480, intravenous Pamidronate 30 mg three monthly, first 24 months, 53 subjects) turn out when `NCCC(O)(P(=O)(O)O)P(=O)(O)O` [Pamidronate] was run?
**A.** 2

**Q.** And the “odds ratio for the >-2.7 cutoff” value [1]?
**A.** 12.0833 (95% CI: 2.2961 to 63.5874)

**Q.** And the “odds ratio for the pos/neg cutoff” value [1]?
**A.** 3.1818 (95% CI: 1.0192 to 9.9327)
